According to patent publication US20090048301A1 (IMCLONE SYSTEMS INCORPORATED, priority 2003, published 2009):

Columns and labels:
[1] = test system: A431 human cancer cell line; assay: Sulphorhodamine B (SRB) growth inhibition assay; assay type: cell-based; conditions: A-431, A431 cells, 48 hours, read-out: SRB Assay: μM required to inhibit tumor cell growth by 50% (GI50)
Method: The in vitro growth inhibition activity of the compounds was determined by the Sulphorhodamine B assay. (Skehan P, Storeng R, Scudiero D, Monks A, McMahon J, Vistica D, Warren J T, Bokesch H, Kenney S, Boyd M R. New colorimetric cytotoxicity assay for anticancer-drug screening. J Natl Cancer Inst 82, 1107-1112, 1990). Sulphorhodamine B binds to basic amino acids and stains proteins which can be eluted and detected spectrophotometically by measuring absorbance at 515 nm. The absorbance was indicative of the total protein content of the cells fixed to the walls of the plate well at a given time by trichloroacetic acid, which is a measure of the viable cell concentration.
The in vitro growth inhibition activity of the compounds was determined using a Sulphorhodamine B assay. See, Skehan et al., “New colorimetric cytotoxicity assay for anticancer-drug screening,” J. Natl. Cancer Inst., 82, 1107-1112, (1990). Sulphorhodamine B binds to basic amino acids and stains proteins which can be eluted and detected spectrophotometically by measuring absorbance at 515 nm. The absorbance indicates the total protein content of the cells fixed to the walls of the plate well at a given time by trichloroacetic acid, which is a measure of the viable cell concentration.
The reagents used in the assay can be purchased from commercial sources and include Sulphorhodamine B 0.4% (w/v) in 1% (v/v) acetic acid (Sigma Cat#S-1402); trichloroacetic acid 50% (w/v) in deionized water, working solution (Sigma Cat#T-9159); and trizma base (Tris) 10 mM working solution, pH 7.5 (Sigma Cat#T-7693).
The procedure was cared out over four days. In Day 1, the cells were seeded in a seed 10,000 cells/100 μL/well in 96 well plate in duplicates as per template. Also, seed cells in extra plate for time zero (To plate). Thereafter, the cells were incubated for 24 hours at 37° C. with 5% CO2.
On Day 2, the test compound was added to the cells at five log doses from 100 μM to 0.01 μM (Volume of addition=100 μL in 1% DMSO for all compound concentrations, Control treatment=1% DMSO).
The compounds were prepared by weighing the test compounds in 1.5 ml eppendorf tubes and calculating the volume of DMSO to be added to bring the concentration of the compound to 20 mM. Thereafter, a 20 mM stock was made and diluted by four 10 fold dilutions in DMSO to get 2, 0.2, 0.02 and 0.002 mM solutions. Each solution was diluted 100 times (10 μL to 1 ml medium) and a further addition to the culture plate (100 μL) to half the concentration of cells was made. The final well concentration for 20 mM stock was 100 μM and similarly with other test concentrations.
The cells were incubated for 48 hours at 37° C. with 5% CO2 and terminated by adding 50 μL of 50% cold trichloroacetic acid (10% to final). Thereafter, the cells were incubated for one hour at 4° C.
On Day 4, the cells were fixed to the wells by the addition of 50 μL of 50% cold trichloroacetic acid (10% to final) and incubated for 1 hour at 4° C. The supernatant was discarded by force inverting the plate into the sink followed by washing thrice with tap water and the plates are then air-dried. 100 μL SRB (0.4% in 1% acetic acid) was added to each well and the plates were incubated for 10 minutes at room temperature. Unbound dye was removed by force inverting the plate into the sink and washing thrice with 1% acetic acid. Thereafter, the plates were allowed to air dry.
Bound SRB was solubilized with 100 μL of 10 mM Tris, pH 7.4 and the absorbance was measured at a wavelength of 515 nm.
A sample set of calculations was performed as follows. The percentage growth was calculated by T-To/C-To X 100 if T>To and T-To/To X 100 if T<To, wherein T is Test OD (with compound), C is Control OD, To is Time Zero OD (cell growth at the time of drug addition). […]

[2] = test system: bovine tubulin; assay: In vitro tubulin polymerization assay (turbidity at 340 nm); assay type: biochemical; conditions: 10 μM compound, 30 minute data point, vs 1% DMSO control
Procedure, shortened: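 Percent inhibition derives from turbidity (340 nm) at 30 min relative to 1% DMSO controls, read every minute at 37° C. Polymerization mix: 3 mg/ml bovine tubulin, <3% MAPs, in PIPES pH 7 G-PEM with 1 mM GTP, 1 mM MgCl2, 5% glycerol; enhancers also detectable.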

[3] = test system: A431, human epidermoid carcinoma cells; assay: Cell cycle analysis (FACS), mitotic arrest in G2/M; assay type: cell-based; conditions: Homo sapiens, A-431, 24 h, read-out: FACS Assay: concentration required to achieve inhibition in FACS assay
Procedure, shortened: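 A431 cells, 500,000/well at treatment, exposed to compounds at 0.01–1 μM final (0.1% DMSO) for 24 h. Ethanol-fixed cells RNase-treated (1 μg/ml, 37° C., 15 min), stained with propidium iodide (50 μg/ml, 30 min, RT). DNA ploidy by flow cytometry; mitotic arrest scored as G2/M accumulation.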

GI50 [1] [µM]	Compound	Tubulin Assay: percent inhibition at 10 μM based on 30 minute data [2] [%]	minimal effective concentration [3] [µM]
0.3	COc1ccc(Nc2nnc(-c3cccnc3Nc3ccc4c(c3)OCO4)[nH]2)cc1 [Compound 8, Benzo[1,3]dioxol-5-yl-{3-[5-(4-methoxy-phenylamino)-4H-[1,2,4]triazol-3-yl]-pyridin-2-yl}-amine]	100	
25	COc1ccc(OC)c(Nc2nnc(-c3cccnc3Nc3ccc4c(c3)OCO4)[nH]2)c1 [Compound 9, Benzo[1,3]dioxol-5-yl-{3-[5-(2,5-dimethoxy-phenylamino)-4H-[1,2,4]triazol-3-yl]-pyridin-2-yl}-amine]	47	
20	COc1ccc(Nc2nnc(-c3cccnc3Nc3ccc4c(c3)OCO4)[nH]2)c(OC)c1 [Compound 10, Benzo[1,3]dioxol-5-yl-{3-[5-(2,4-dimethoxy-phenylamino)-4H-[1,2,4]triazol-3-yl]-pyridin-2-yl}-amine]	73	
20	COc1cc(Nc2ncccc2-c2nnc(Nc3ccc(OC)cc3OC)[nH]2)cc(OC)c1 [Compound 12, (3,5-Dimethoxy-phenyl)-{3-[5-(2,4-dimethoxy-phenylamino)-4H-[1,2,4]triazol-3-yl]-pyridin-2-yl}-amine]	46	
2.5	COc1cc(Nc2nnc(-c3cccnc3NCc3ccc4c(c3)OCO4)[nH]2)cc(OC)c1 [Compound 16, Benzo[1,3]dioxol-5-ylmethyl-{3-[5-(3,5-dimethoxy-phenylamino)-4H-[1,2,4]triazol-3-yl]-pyridin-2-yl}-amine]	41	
10	c1cnc(NCc2ccc3c(c2)OCO3)c(-c2nnc(Nc3ccc4c(c3)OCO4)[nH]2)c1 [Compound 33, {3-[5-(Benzo[1,3]dioxol-5-ylamino)-4H-[1,2,4]triazol-3-yl]-pyridin-2-yl}-benzo[1,3]dioxol-5-ylmethyl-amine]	60	
6	COc1cc(Nc2ncccc2-c2nnc(Nc3cc(Cl)cc(Cl)c3)[nH]2)cc(OC)c1 [Compound 53, {3-[5-(3,5-Dichloro-phenylamino)-4H-[1,2,4]triazol-3-yl]-pyridin-2-yl}-(3,5-dimethoxy-phenyl)-amine]	44	
80	CS(=O)(=O)c1ccc(-c2nnc(-c3cccnc3NCCCN3CCCC3=O)[nH]2)cc1 [Compound 75, 1-(3-{3-[5-(4-Methanesulfonyl-phenyl)-4H-[1,2,4]triazol-3-yl]-pyridin-2-ylamino}-propyl)-pyrrolidin-2-one]	60	
20	COc1cc(CNc2ncccc2-c2nnc(-c3cccc(OC)c3)[nH]2)cc(OC)c1 [Compound 79, (3,5-Dimethoxy-benzyl)-{3-[5-(3-methoxy-phenyl)-4H-[1,2,4]triazol-3-yl]-pyridin-2-yl}-amine]	32	
8	COc1cccc(-c2nnc(-c3cccnc3NCc3ccc4c(c3)OCO4)[nH]2)c1 [Compound 80, Benzo[1,3]dioxol-5-ylmethyl-{3-[5-(3-methoxy-phenyl)-4H-[1,2,4]triazol-3-yl]-pyridin-2-yl}-amine]	46	
20	Fc1cccc(-c2nnc(-c3cccnc3NCc3ccc4c(c3)OCO4)[nH]2)c1 [Compound 82, Benzo[1,3]dioxol-5-ylmethyl-{3-[5-(3-fluoro-phenyl)-4H-[1,2,4]triazol-3-yl]-pyridin-2-yl}-amine]	30	
2.5	FC(F)(F)c1ccc(-c2nnc(-c3cccnc3NCc3ccc4c(c3)OCO4)[nH]2)cc1 [Compound 84, Benzo[1,3]dioxol-5-ylmethyl-{3-[5-(4-trifluoromethyl-phenyl)-4H-[1,2,4]triazol-3-yl]-pyridin-2-yl}-amine]	27	
2.2	FC(F)(F)c1ccc(-c2nnc(-c3cccnc3NCc3cccnc3)[nH]2)cc1 [Compound 86, Pyridin-3-ylmethyl-{3-[5-(4-trifluoromethyl-phenyl)-4H-[1,2,4]triazol-3-yl]-pyridin-2-yl}-amine]	31	
30	COc1cc(OC)cc(-c2nnc(-c3cccnc3NCc3cccnc3)[nH]2)c1 [Compound 87, {3-[5-(3,5-Dimethoxy-phenyl)-4H-[1,2,4]triazol-3-yl]-pyridin-2-yl}-pyridin-3-ylmethyl-amine]	85	
5	CS(=O)(=O)c1ccc(-c2nnc(-c3cccnc3NCc3cccnc3)[nH]2)cc1 [Compound 89, {3-[5-(4-Methanesulfonyl-phenyl)-4H-[1,2,4]triazol-3-yl]-pyridin-2-yl}-pyridin-3-ylmethyl-amine]	85	
30	Fc1ccc(OCc2nnc(-c3cccnc3NCc3ccc4c(c3)OCO4)[nH]2)cc1 [Compound 109, Benzo[1,3]dioxol-5-ylmethyl-{3-[5-(4-fluoro-phenoxymethyl)-4H-[1,2,4]triazol-3-yl]-pyridin-2-yl}-amine]	41	
10	c1ccc(-c2nnc(Nc3ccc4c(c3)OCO4)[nH]2)c(NCc2ccncc2)c1 [Compound 111, Benzo[1,3]dioxol-5-yl-(5-{2-[(pyridin-4-ylmethyl)-amino]-phenyl}-4H-[1,2,4]triazol-3-yl)-amine]	70	
	c1ccc(-c2cnc(Nc3ccc4c(c3)OCCO4)o2)c(NCc2ccc3c(c2)OCO3)c1 [Compound 244, (5-{2-[(Benzo[1,3]dioxol-5-ylmethyl)-amino]-phenyl}-oxazol-2-yl)-(2,3-dihydro-benzo[1,4]dioxin-6-yl)-amine]	96	1
	COc1cc(CNc2ccccc2-c2cnc(Nc3ccc4c(c3)OCCO4)o2)cc(OC)c1 [Compound 246, (2,3-Dihydro-benzo[1,4]dioxin-6-yl)-{5-[2-(3,5-dimethoxy-benzylamino)-phenyl]-oxazol-2-yl}-amine]	72	1
	COc1cccc(Nc2ncc(-c3ccccc3NCc3ccc4c(c3)OCO4)o2)c1 [Compound 249, (5-{2-[(Benzo[1,3]dioxol-5-ylmethyl)-amino]-phenyl}-oxazol-2-yl)-(3-methoxy-phenyl)-amine]	60	1
	COc1cccc(Nc2ncc(-c3ccccc3NCc3ccc4c(c3)OCCO4)o2)c1 [Compound 250, (5-{2-[(2,3-Dihydro-benzo[1,4]dioxin-6-ylmethyl)-amino]-phenyl}-oxazol-2-yl)-(3-methoxy-phenyl)-amine]	60	1
